Data: patent publication US20200270309A1, “MALEIMIDE GROUP-MODIFIED ANGIOGENESIS INHIBITOR HM-1 AND USE THEREOF” (NANJING ANJI BIOLOGICAL TECHNOLOGY CO., LTD, priority 2017, published 2020)
Marks after values point to notes of the source that are not given here. Peptide text beside a SMILES is read from it. * marks the point of attachment. X59 = O=C1C=CC(=O)N1c1cccc(CCCCCCCCC(=O)*)c1; X52 = O=C1C=CC(=O)N1c1ccccc1CCCCCCCC(=O)*

Key:
[1] = tested on: carrageenan-induced toe swelling; experiment: Carrageenan-induced toe swelling in rats; format: in vivo; settings: SD rats; for Swelling degree 1 h: 1 h after carrageenan; for Swelling degree 3 h: 3 h after carrageenan; for Swelling degree 5 h: 5 h after carrageenan; for Swelling degree 7 h: 7 h after carrageenan
Summary of the method: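 Rats dosed by injection once daily for 3 d, controls given equal-volume saline. Right hind paw volume measured by water displacement to a marked joint line; swelling degree (mL) is paw volume after carrageenan inflammation minus volume before.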

[2] = tested on: xylene-induced ear swelling; experiment: Xylene-induced mouse ear swelling; format: in vivo; settings: Kunming mice, injected once a day for 5 days; for Inhibition rate (%): xylene-induced ear swelling
Summary of the method: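 Kunming mice dosed by injection once daily for 5 days; 1 h after last dose, 0.05 mL xylene applied to right ear, left ear untreated. Mice killed 2 h later; punched ear pieces weighed. Swelling degree = right minus left ear weight; swelling rate = swelling degree/left ear weight ×100%.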

[3] = tested on: human retinal capillary endothelial cells (HRCECs); experiment: MTT proliferation inhibition on HRCECs; format: cell-based; settings: 48 h; for A570 nm-A630 nm: mean±SD
Summary of the method: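 HRCECs seeded at 3.0×10^4 cells/mL, adhered overnight, then exposed to polypeptide for 48 h at 37 °C, 5% CO2. MTT added 4 h, formazan dissolved in DMSO, absorbance 570/630 nm; PIR (%) = 1 − treated/negative control, mean±SD of three independent runs.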

[4] = tested on: retinal neovascularization (OIR model); experiment: Retinal vessels in OIR mice; format: in vivo, C57/B16 mice; settings: for Area of neovascular plexus (mm^2): dose 0.05 μM in the vitreous chamber on day 13, retinal vessels evaluated on day 17; for Inhibition rate (%): dose 0.05 μM in the vitreous chamber on day 13, retinal vessels evaluated on day 17, vs negative control
Summary of the method: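 C57/B16 pups were held in 75% oxygen from postnatal day 7 to 12, then returned to room air. On day 13 they received intravitreal saline or compound. On day 17 perfused vessels were labelled by Texas red tomato agglutinin injected into the left ventricle (5 min circulation) and retinal vasculature assessed.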

[5] = tested on: choroidal neovascularization; experiment: Choroidal neovascularization in rats (laser photocoagulation, FFA); format: in vivo; settings: BN rats
Summary of the method: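 Male BN rats aged 6-8 weeks were given 8 krypton-laser spots around the optic disc (647.1 nm, 350 mW, 50 μm, 0.05 s). Once the model was confirmed, groups of 5 got daily intravitreal compound at 0.05 μM or saline for 1 week. FFA followed at 3, 7, 14 and 28 days after dosing.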

[6] = dose 2 mg/kg, right minus left ear piece weight 2 h after xylene
[7] = dose 4 mg/kg, right minus left ear piece weight 2 h after xylene
[8] = dose 8 mg/kg, right minus left ear piece weight 2 h after xylene
[9] = day 3 after administration, total light spot number was 297, 0.05 μM in the vitreous chamber once a day for 1 week
[10] = day 7 after administration, total light spot number was 186, 0.05 μM in the vitreous chamber once a day for 1 week
[11] = day 14 after administration, total light spot number was 137, 0.05 μM in the vitreous chamber once a day for 1 week
[12] = day 28 after administration, total light spot number was 69, 0.05 μM in the vitreous chamber once a day for 1 week

SMILES | Swelling degree 1 h ([1]; 2.0 mg/kg once a day for 3 d) | Swelling degree 3 h ([1]; 2.0 mg/kg once a day for 3 d) | Swelling degree 5 h ([1]; 2.0 mg/kg once a day for 3 d) | Swelling degree 7 h ([1]; 2.0 mg/kg once a day for 3 d) | Swelling degree 1 h ([1]; 4.0 mg/kg once a day for 3 d) | Swelling degree 3 h ([1]; 4.0 mg/kg once a day for 3 d) | Swelling degree 5 h ([1]; 4.0 mg/kg once a day for 3 d) | Swelling degree 7 h ([1]; 4.0 mg/kg once a day for 3 d) | Inhibition rate (%) ([2]; dose 2 mg/kg) | Swelling degree (mg) [2, 7] | Inhibition rate (%) ([2]; dose 4 mg/kg) | Swelling degree (mg) [2, 8] | Inhibition rate (%) ([2]; dose 8 mg/kg) | Inhibition rate (%) ([3]; dose 0.05 μM) | A570 nm-A630 nm ([3]; dose 0.05 μM) | Inhibition rate (%) ([3]; dose 0.1 μM) | A570 nm-A630 nm ([3]; dose 0.1 μM) | Inhibition rate (%) ([3]; dose 0.2 μM) | A570 nm-A630 nm ([3]; dose 0.2 μM) | Area of neovascular plexus (mm^2) [4] | further results
C[C@H](NC(=O)CNC(=O)[C@H](CCCNC(=N)N)NC(=O)CCCCCCCc1ccccc1N1C(=O)C=CC1=O)C(=O)N[C@@H](CC(=O)O)C(=O)N[C@@H](CCCNC(=N)N)C(=O)N[C@@H](C)C(=O)NCC(=O)NCC(=O)NCC(=O)NCC(=O)N[C@@H](CCCNC(=N)N)C(=O)NCC(=O)N[C@@H](CC(=O)O)C(=O)O [X19] (X52-RGADRAGGGGRGD-OH) | 0.21 ± 0.13 mg | 0.33 ± 0.15 mg | 0.36 ± 0.17 mg | 0.32 ± 0.12 mg | 0.26 ± 0.11 mg | 0.38 ± 0.17 mg | 0.42 ± 0.15 mg | 0.32 ± 0.18 mg | 20.06% | 3.97 ± 0.61** mg | 36.28% | 3.8 ± 0.03** mg | 39.00% | 51.03%* | 0.6472 ± 0.01829 | 63.29%** | 0.4852 ± 0.07133 | 64.71%* | 0.4664 ± 0.01886 | 0.083 ± 0.019 mm^2 | Swelling degree (mg) [2, 6]: 4.98 ± 0.72* mg; Inhibition rate (%) [4]: 60.85%**; CNV Incidence (%) [5, 9]: 52.19%; Leakage Light spot number [5, 9]: 155; CNV Incidence (%) [5, 10]: 45.70%; Leakage Light spot number [5, 10]: 85; CNV Incidence (%) [5, 11]: 41.61%; Leakage Light spot number [5, 11]: 57; CNV Incidence (%) [5, 12]: 44.93%; Leakage Light spot number [5, 12]: 31
C[C@H](NC(=O)CNC(=O)[C@H](CCCNC(=N)N)NC(=O)CCCCCCCCc1cccc(N2C(=O)C=CC2=O)c1)C(=O)N[C@@H](CC(=O)O)C(=O)N[C@@H](CCCNC(=N)N)C(=O)N[C@@H](C)C(=O)NCC(=O)NCC(=O)NCC(=O)NCC(=O)N[C@@H](CCCNC(=N)N)C(=O)NCC(=O)N[C@@H](CC(=O)O)C(=O)O [X32] (X59-RGADRAGGGGRGD-OH) | 0.25 ± 0.18 mg | 0.35 ± 0.13 mg | 0.36 ± 0.12 mg | 0.31 ± 0.17 mg | 0.24 ± 0.14 mg | 0.33 ± 0.17 mg | 0.41 ± 0.15 mg | 0.35 ± 0.12 mg | 17.01% | 4.83 ± 0.02* mg | 22.47% | 3.69 ± 0.56** mg | 40.77% | 52.91%* | 0.6224 ± 0.08338 | 54.38%** | 0.6030 ± 0.05575 | 69.51%* | 0.4030 ± 0.00097 | 0.096 ± 0.001 mm^2 | Swelling degree [2, 6]: 5.17 ± 0.06 mg; Inhibition rate (%) [4]: 54.72%**; CNV Incidence (%) [5, 9]: 54.21%; Leakage Light spot number [5, 9]: 161; CNV Incidence (%) [5, 10]: 46.24%; Leakage Light spot number [5, 10]: 86; CNV Incidence (%) [5, 11]: 43.07%; Leakage Light spot number [5, 11]: 59; CNV Incidence (%) [5, 12]: 42.03%; Leakage Light spot number [5, 12]: 29
